The results in this text go back to US7572768B2, “Methods for identifying compounds for regulating muscle mass or function using corticotropin releasing factor receptors” (priority 2001, dated 2009).

In test [1] the test system is disuse-induced atrophy of skeletal muscle. In words: mouse leg casting disuse atrophy model. The format is in vivo. Particulars: ten days. Here is the method:
(§1) Legend: A—physiological saline (control); B—theophylline; C—sauvagine (0.03 mg/kg)+theophylline; D—sauvagine (0.1 mg/kg)+theophylline; E—sauvagine (0.3 mg/kg)+theophylline; *—p≦0.05 compared to saline. Following casting of the right hind leg, male mice were injected subcutaneously in the midscapular region twice daily, with sauvagine or vehicle control (physiological saline) for ten days at the daily delivered dose indicated. Sauvagine was co-administered with twice daily intra-peritoneal dosing of the phosphodiesterase inhibitor theophylline (30 mg/kg). On day ten, the medial gastrocnemius and tibialis anterior muscles were removed and weighed to determine the degree of atrophy.
as §1, with “B—urocortin” for “B—theophylline; C—sauvagine (0.03 mg/kg)+theophylline; D—sauvagine (0.1 mg/kg)+theophylline; E—sauvagine”, “urocortin” for “sauvagine”, “days. Urocortin was administered” for “days”, “doses indicated in the description of FIGS. 6A and 6B. Urocortin” for “daily delivered dose indicated. Sauvagine”
Legend: A—non casted muscle control; B—casted muscle, saline control; C—casted muscle, sauvagine (0.3 mg/kg)+theophylline (30 mg/kg); *—p≦0.05 compared to saline. Following casting of the right hind leg, male mice were injected subcutaneously in the midscapular region twice daily, with either sauvagine or vehicle control (physiological saline) for ten days at the doses indicated above. Sauvagine was co-administered 30 mg/kg theophylline. On day ten, the EDL and soleus muscles were removed and absolute force and mass measurements taken to determine the degree of atrophy.
The leg casting disuse atrophy model involves casting one hind leg of an animal from the knee down through the foot. Typically, muscle mass is reduced 20-40% after ten days of casting. Following casting, test compounds are administered by injection or by continuous infusion via implantation of an osmotic minipump (e.g., Alzet, Palo Alto, Calif.) to determine their effect on leg casting induced skeletal muscle atrophy. At various times following leg casting, the extent of atrophy in the affected muscles is analyzed as described above for the denervation model.
The extensor digitorum longus (EDL) and soleus muscles are removed, tendon-to-tendon from the casted mouse leg. A silk suture is tied to each tendon of the isolated muscles and the muscles are placed into a plexiglass chamber filled with Ringer solution (137 mM sodium chloride, 24 mM sodium bicarbonate, 11 mM glucose, 5 mM potassium chloride, 1 mM magnesium sulfate, 1 mM sodium phosphate, 0.025 mM tubocurarine, all at pH 7.4 and oxygenated with 95% oxygen/5% carbon dioxide) constantly bubbled with 95% oxygen/5% carbon dioxide maintained at 25° C. Muscles are aligned horizontally between a servomotor lever arm (Model 305B-LR Cambridge Technology Inc., Watertown Mass., USA) and the stainless steel hook of a force transducer (Model BG-50; Kulite Semiconductor Products Inc., Leonia, N.J., USA) and field stimulated by pulses transmitted between two platinum electrodes placed longitudinally on either side of the muscle. Square wave pulses (0.2 ms duration) generated by a personal computer with a Labview board (Model PCI-MIO 16E-4), Labview Inc., Austin, Tex., USA) are amplified (Acurus power amplifier model A25, Dobbs Ferry, N.Y., USA) to increase titanic contraction. Stimulation voltage and muscle length (Lo) are adjusted to obtain maximum isometric twitch force. Maximum titanic force production (Po) is determined from the plateau of the frequency-force relationship.

Test [2] has as its system denervation-induced atrophy of skeletal muscle. The experiment in a line: adrenalectomized rat sciatic nerve denervation-induced atrophy model. The format is in vivo. Particulars: male adrenalectomized rats, 0.003-0.03 mg/kg s.c. twice daily + 30 mg/kg theophylline, nine days. Here is the method: Legend: A—physiological saline (control); B—sauvagine (0.003 mg/kg)+theophylline; C—sauvagine (0.01 mg/kg)+theophylline; D—sauvagine (0.03 mg/kg)+theophylline; #—p≦0.05 compared to corresponding controls. Following denervation of the right sciatic nerve, male adrenalectomized rats (adrenalectomized rats were used to remove the skeletal muscle atrophy-inducing effects of activation of the HPA axis via agonisms of the CRF1R) were injected subcutaneously in the midscapular region twice daily, with either sauvagine or vehicle control (physiological saline) for nine days at the doses shown above. Sauvagine was co-administered with 30 mg/kg theophylline. On day nine, the tibialis anterior, extensor digitorum longus (EDL), soleus, medial gastrocnemius, and plantaris muscles were removed and weighed to determine the degree of atrophy.
The sciatic nerve denervation atrophy model involves anesthetizing the animal followed by the surgical removal of a short segment of either the right or left sciatic nerve, e.g., in mice the sciatic nerve is isolated approximately at the midpoint along the femur and a 3-5 mm segment is removed. This denervates the lower hind limb musculature resulting in atrophy of these muscles. Typically, innervation to the biceps femoris is left intact to provide satisfactory motion of the knee for virtually normal ambulation. Typically, in untreated animals, muscle mass of the denervated muscles is reduced 30-50% ten days following denervation. Following denervation, test compounds are administered e.g., by injection or by continuous infusion, e.g., via implantation of an osmotic minipump (e.g., Alzet, Palo Alto, Calif.), to determine their effect on denervation induced skeletal muscle atrophy. At various times following denervation, the animals are euthanized and lower leg muscles are dissected rapidly from both the denervated and nondenervated legs, the muscles, cleaned of tendons and connective tissue, are weighed. The extent of atrophy in the affected muscles is analyzed, for example, by measuring muscle mass, muscle cross-sectional area, myofiber cross-sectional area or contractile protein content.

The mark [3] stands for this setting: FIG. 9A, male mice, 0.3 mg/kg s.c. twice daily + theophylline 30 mg/kg.

The structures appear in SMILES notation.

Take `CC[C@H](C)[C@H](NC(=O)[C@@H](NC(=O)[C@H](CC(=O)O)NC(=O)[C@H](CC(C)C)NC(=O)[C@H](CC(C)C)NC(=O)[C@H](CC(C)C)NC(=O)[C@H](CCCNC(=N)N)NC(=O)[C@H](CC(N)=O)NC(=O)[C@H](CC(N)=O)NC(=O)[C@H](C)NC(=O)[C@H](C)NC(=O)[C@H](CCC(N)=O)NC(=O)[C@H](CCC(N)=O)NC(=O)[C@H](CCCCN)NC(=O)[C@H](CCC(=O)O)NC(=O)[C@H](CCCCN)NC(=O)[C@H](CCC(=O)O)NC(=O)[C@H](CCC(N)=O)NC(=O)[C@H](CCCCN)NC(=O)[C@H](CCC(=O)O)NC(=O)[C@@H](NC(=O)[C@H](CCC(=O)O)NC(=O)[C@@H](NC(=O)[C@H](CCSC)NC(=O)[C@H](CCCCN)NC(=O)[C@H](CCCNC(=N)N)NC(=O)[C@H](CC(C)C)NC(=O)[C@H](CC(C)C)NC(=O)[C@H](CCC(=O)O)NC(=O)[C@H](CC(C)C)NC(=O)[C@H](CO)NC(=O)[C@H](CC(C)C)NC(=O)[C@H](CC(=O)O)NC(=O)[C@@H](NC(=O)[C@H](CO)NC(=O)[C@@H](NC(=O)[C@@H]1CCCN1C(=O)[C@@H]1CCCN1C(=O)CNC(=O)[C@@H]1CCC(=O)N1)[C@@H](C)CC)[C@@H](C)CC)[C@@H](C)CC)[C@@H](C)CC)[C@@H](C)O)C(N)=O` [sauvagine]: the “disuse-induced atrophy of the tibialis anterior muscle (muscle weight)” value in test [1] (FIG. 4A, casted leg, male mice, 0.03-0.3 mg/kg s.c. twice daily + theophylline 30 mg/kg i.p.) is “inhibits disuse-induced atrophy”. In test [1] (FIG. 4A, non-casted leg, 0.03-0.3 mg/kg s.c. twice daily + theophylline 30 mg/kg i.p.), the “hypertrophy of the tibialis anterior muscle of the non-casted leg” value is on record as “statistically significant hypertrophy”. In test [1] (FIG. 4B, casted leg, male mice, 0.03-0.3 mg/kg s.c. twice daily + theophylline 30 mg/kg i.p.), the “disuse-induced atrophy of the medial gastrocnemius muscle (muscle weight)” value is given as “inhibits disuse-induced atrophy”. Moreover, the “hypertrophy of the medial gastrocnemius muscle of the non-casted leg” value in test [1] (FIG. 4B, non-casted leg, 0.03-0.3 mg/kg s.c. twice daily + theophylline 30 mg/kg i.p.) is “statistically significant hypertrophy”. In test [1] (setting [3]), the “disuse-induced loss of EDL muscle mass” value is on record as “inhibits disuse-induced loss” and the “disuse-induced loss of soleus muscle mass” value is “inhibits disuse-induced loss”. Further, the “loss of muscle function as assessed by measurement of absolute force” value in test [1] (FIG. 9B, EDL and soleus muscles, 0.3 mg/kg s.c. twice daily + theophylline 30 mg/kg) is given as “inhibits loss of muscle function”. Besides, the “denervation-induced atrophy of the tibialis anterior muscle (muscle weight)” value in test [2] (FIG. 7A) is listed as “inhibits denervation-induced atrophy”. Besides, in test [2] (FIG. 7B), the “denervation-induced atrophy of the EDL muscle (muscle weight)” value is recorded as “inhibits denervation-induced atrophy” and the “hypertrophy of the non-denervated EDL muscle” value is reported as “statistically significant hypertrophy”. Further, in test [2] (FIG. 7C), the “denervation-induced atrophy of the soleus muscle (muscle weight)” value is listed as “inhibits denervation-induced atrophy”. In addition, the “denervation-induced atrophy of the medial gastrocnemius muscle (muscle weight)” value in test [2] (FIG. 7D) is on record as “inhibits denervation-induced atrophy”. The “denervation-induced atrophy of the plantaris muscle (muscle weight)” value in test [2] (FIG. 7E) is listed as “inhibits denervation-induced atrophy”.
